# Patent publication US12502362B2, “Inhibitors of nucleotidyltransferase superfamily enzymes as antibiotics” (priority 2017, dated 2025)
# Where two headings read alike, the source gives them in different places.
# Tests used:
# Staphylococcus hominis = format: cell-based; on FOX screen: key: POS: cefoxitin-screen positive (resistant to cefoxitin)
# Description: (§1) It was also tested whether compounds #63 and #285 can inhibit other coagulase-negative Staphylococcus (CNS) including S. epidermidis, S. hominis, etc. […].
# [1] = test system: Staphylococcus epidermidis; format: cell-based; on FOX screen: key: POS: cefoxitin-screen positive (resistant to cefoxitin)
# Description: as §1
# [2] = test system: S. aureus ATCC strains and MRSA; format: cell-based, Staphylococcus aureus
# S. aureus (ATCC 29213) = experiment: MIC80 on S. aureus; format: cell-based, Staphylococcus aureus; conditions: S. aureus ATCC 29213 (MSSA); ≥80% growth inhibition
# Description: (§2) To further characterize the compounds, the minimal inhibitory concentration (MIC80) were determined for selected compounds. MIC80 is defined as the compound concentration at which ≥80% bacterial growth is inhibited compare to untreated controls. Meanwhile, for the selected compounds, cytotoxicity assays (CC50) were performed on a HepG2-derived hepatoblastoma cell line (HEPDES19). […] For CC50 evaluation, soluble tetrazolium dye (MTS) was used to measure mitochondrial toxicity in a human hepatoblastoma cell line (18). The bacteria (E. coli, S. saprophyticus and A. baumannii) used in MIC80 measurements were the same as that in the primary screening, but for Staphylococcus, S. aureus is used primarily because it is a common pathogen in Staphylococcaeae family, while S. saprophyticus is part of the normal human flora.
# E. coli (ATCC 35218) = experiment: microbe, parasite or virus in culture; format: cell-based; conditions: E. coli ATCC 35218
# Description: as §2
# [3] = test system: Coagulase negative Staphylococcus; experiment: Antibiotic susceptibility of coagulase negative Staphylococcus strains; format: cell-based
# [4] = Se1 (Staphylococcus epidermidis)
# [5] = Se2 (Staphylococcus epidermidis)
# [6] = Se3 (Staphylococcus epidermidis)
# [7] = Se4 (Staphylococcus epidermidis)
# [8] = Se5 (Staphylococcus epidermidis)
# [9] = CNS1 (Coagulase negative Staphylococcus)
# [10] = CNS2 (Coagulase negative Staphylococcus)
compound,measurement,setting,value
"CCC[C@@H]1C[C@@H](C(=O)N[C@@H]([C@H]2O[C@H](SC)[C@H](O)[C@@H](O)[C@H]2O)[C@H](C)Cl)N(C)C1 [CLI, clindamycin]",Antibiotic susceptibility,Staphylococcus hominis; Sh1 (Staphylococcus hominis),S
same,Antibiotic susceptibility,Staphylococcus hominis; Sh2 (Staphylococcus hominis),S
same,Antibiotic susceptibility,Staphylococcus hominis; Sh3 (Staphylococcus hominis),R
same,Antibiotic susceptibility,[1]; [4],R
same,Antibiotic susceptibility,[1]; [5],R
same,Antibiotic susceptibility,[1]; [6],R
same,Antibiotic susceptibility,[1]; [7],R
same,Antibiotic susceptibility,[1]; [8],R
same,Antibiotic susceptibility,[2]; S. aureus ATCC 25923,S
same,Antibiotic susceptibility,[2]; S. aureus ATCC 29213,S
same,Antibiotic susceptibility,[2]; S. aureus ATCC BAA 976,S
same,Antibiotic susceptibility,[2]; S. aureus ATCC BAA 977,R
same,Antibiotic susceptibility,[2]; S. aureus ATCC BAA 1026,R
same,Antibiotic susceptibility,[2]; Sa1 (MRSA),R
same,Antibiotic susceptibility,[2]; Sa2 (MRSA),S
same,Antibiotic susceptibility,[2]; Sa3 (MRSA),R
same,Antibiotic susceptibility,[2]; Sa5 (MRSA),R
same,Antibiotic susceptibility,[2]; Sa6 (MRSA),R
same,Antibiotic susceptibility,[2]; Sa7 (MRSA),S
same,Antibiotic susceptibility,[2]; Sa8 (MRSA),S
same,Antibiotic susceptibility,[2]; Sa9 (MRSA),R
same,Antibiotic susceptibility,[2]; Sa10 (MRSA),R
same,Antibiotic susceptibility,[2]; Sa11 (MRSA),R
same,Antibiotic susceptibility,[2]; Sa12 (MRSA),R
same,Antibiotic susceptibility,[2]; Sa14 (MRSA),R
same,Antibiotic susceptibility,[2]; Sa15 (MRSA),R
same,Antibiotic susceptibility,[2]; Sa16 (MRSA),R
same,Antibiotic susceptibility,[2]; Sa17 (MRSA),S
same,Antibiotic susceptibility,[2]; Sa18 (MRSA),S
same,Antibiotic susceptibility,[2]; Sa19 (MRSA),R
same,Antibiotic susceptibility,[2]; Sa20 (MRSA),S
same,Antibiotic susceptibility,[2]; Sa21 (MRSA),S
same,Antibiotic susceptibility,[2]; Sa22 (MRSA),S
same,Antibiotic susceptibility,[2]; Sa23 (MRSA),S
Cc1cc(O)c(=O)c(O)cc1-c1cccc2ccccc12 [Compound 146],MIC80 S. aureus,S. aureus (ATCC 29213),19.8 µM
O=C(O)c1ccccc(=O)c1O [Compound 338],MIC80 S. aureus,S. aureus (ATCC 29213),19.8 µM
COc1ccc(Cl)cc1C(=O)Sc1cccccc1=O [Compound 681],MIC80 E. coli,E. coli (ATCC 35218),19.8 µM
same,MIC80 S. aureus,S. aureus (ATCC 29213),19.8 µM
O=c1cccccc1Sc1cccccc1=O [Compound 684],MIC80 S. aureus,S. aureus (ATCC 29213),44.4 µM
O=c1cccccc1SSc1cccccc1=O [Compound 685],MIC80 E. coli,E. coli (ATCC 35218),19.8 µM
same,MIC80 S. aureus,S. aureus (ATCC 29213),>100 µM
"CCCCCCCCCC(=O)N[C@@H](Cc1c[nH]c2ccccc12)C(=O)N[C@H](CC(N)=O)C(=O)N[C@@H](CC(=O)O)C(=O)N[C@@H]1C(=O)NCC(=O)N[C@@H](CCCN)C(=O)N[C@@H](CC(=O)O)C(=O)N[C@H](C)C(=O)N[C@@H](CC(=O)O)C(=O)NCC(=O)N[C@H](CO)C(=O)N[C@@H]([C@H](C)CC(=O)O)C(=O)N[C@@H](CC(=O)c2ccccc2N)C(=O)O[C@@H]1C [DAP, daptomycin]",Antibiotic susceptibility,Staphylococcus hominis; Sh1 (Staphylococcus hominis),S
same,Antibiotic susceptibility,Staphylococcus hominis; Sh2 (Staphylococcus hominis),S
same,Antibiotic susceptibility,Staphylococcus hominis; Sh3 (Staphylococcus hominis),S
same,Antibiotic susceptibility,[1]; [4],S
same,Antibiotic susceptibility,[1]; [5],S
same,Antibiotic susceptibility,[1]; [6],S
same,Antibiotic susceptibility,[1]; [7],S
same,Antibiotic susceptibility,[1]; [8],S
same,Antibiotic susceptibility,[3]; [9],S
same,Antibiotic susceptibility,[3]; [10],S
same,Antibiotic susceptibility,[2]; S. aureus ATCC 25923,S
same,Antibiotic susceptibility,[2]; S. aureus ATCC 29213,S
same,Antibiotic susceptibility,[2]; S. aureus ATCC BAA 976,S
same,Antibiotic susceptibility,[2]; S. aureus ATCC BAA 977,S
same,Antibiotic susceptibility,[2]; S. aureus ATCC BAA 1026,S
same,Antibiotic susceptibility,[2]; Sa1 (MRSA),S
same,Antibiotic susceptibility,[2]; Sa2 (MRSA),S
same,Antibiotic susceptibility,[2]; Sa3 (MRSA),S
same,Antibiotic susceptibility,[2]; Sa6 (MRSA),S
same,Antibiotic susceptibility,[2]; Sa7 (MRSA),S
same,Antibiotic susceptibility,[2]; Sa9 (MRSA),S
same,Antibiotic susceptibility,[2]; Sa11 (MRSA),S
same,Antibiotic susceptibility,[2]; Sa12 (MRSA),S
same,Antibiotic susceptibility,[2]; Sa15 (MRSA),S
same,Antibiotic susceptibility,[2]; Sa16 (MRSA),S
same,Antibiotic susceptibility,[2]; Sa17 (MRSA),S
same,Antibiotic susceptibility,[2]; Sa18 (MRSA),S
same,Antibiotic susceptibility,[2]; Sa19 (MRSA),S
same,Antibiotic susceptibility,[2]; Sa20 (MRSA),S
same,Antibiotic susceptibility,[2]; Sa21 (MRSA),S
same,Antibiotic susceptibility,[2]; Sa22 (MRSA),S
same,Antibiotic susceptibility,[2]; Sa23 (MRSA),S
"C[C@H]1c2cccc(O)c2C(=O)C2=C(O)[C@]3(O)C(=O)C(C(N)=O)=C(O)[C@@H](N(C)C)[C@@H]3[C@@H](O)[C@@H]21 [DOX, doxycycline]",Antibiotic susceptibility,Staphylococcus hominis; Sh1 (Staphylococcus hominis),S
same,Antibiotic susceptibility,Staphylococcus hominis; Sh2 (Staphylococcus hominis),R
same,Antibiotic susceptibility,Staphylococcus hominis; Sh3 (Staphylococcus hominis),S
same,Antibiotic susceptibility,[1]; [4],S
same,Antibiotic susceptibility,[1]; [5],S
same,Antibiotic susceptibility,[1]; [6],S
same,Antibiotic susceptibility,[1]; [7],S
same,Antibiotic susceptibility,[1]; [8],S
same,Antibiotic susceptibility,[3]; [9],S
same,Antibiotic susceptibility,[3]; [10],S
same,Antibiotic susceptibility,[2]; S. aureus ATCC 25923,S
same,Antibiotic susceptibility,[2]; S. aureus ATCC 29213,S
same,Antibiotic susceptibility,[2]; S. aureus ATCC BAA 976,S
same,Antibiotic susceptibility,[2]; S. aureus ATCC BAA 977,S
same,Antibiotic susceptibility,[2]; S. aureus ATCC BAA 1026,S
same,Antibiotic susceptibility,[2]; Sa1 (MRSA),S
same,Antibiotic susceptibility,[2]; Sa2 (MRSA),S
same,Antibiotic susceptibility,[2]; Sa3 (MRSA),S
same,Antibiotic susceptibility,[2]; Sa6 (MRSA),S
same,Antibiotic susceptibility,[2]; Sa7 (MRSA),S
same,Antibiotic susceptibility,[2]; Sa9 (MRSA),S
same,Antibiotic susceptibility,[2]; Sa11 (MRSA),S
same,Antibiotic susceptibility,[2]; Sa12 (MRSA),S
same,Antibiotic susceptibility,[2]; Sa14 (MRSA),S
same,Antibiotic susceptibility,[2]; Sa15 (MRSA),S
same,Antibiotic susceptibility,[2]; Sa16 (MRSA),S
same,Antibiotic susceptibility,[2]; Sa17 (MRSA),S
same,Antibiotic susceptibility,[2]; Sa18 (MRSA),S
same,Antibiotic susceptibility,[2]; Sa19 (MRSA),S
same,Antibiotic susceptibility,[2]; Sa20 (MRSA),S
same,Antibiotic susceptibility,[2]; Sa21 (MRSA),S
same,Antibiotic susceptibility,[2]; Sa22 (MRSA),S
same,Antibiotic susceptibility,[2]; Sa23 (MRSA),S
"CC[C@H]1OC(=O)[C@H](C)[C@@H](O[C@H]2C[C@@](C)(OC)[C@@H](O)[C@H](C)O2)[C@H](C)[C@@H](O[C@@H]2O[C@H](C)C[C@H](N(C)C)[C@H]2O)[C@](C)(O)C[C@@H](C)C(=O)[C@H](C)[C@@H](O)[C@]1(C)O [ERY, erythromycin]",Antibiotic susceptibility,Staphylococcus hominis; Sh1 (Staphylococcus hominis),R
same,Antibiotic susceptibility,Staphylococcus hominis; Sh2 (Staphylococcus hominis),S
same,Antibiotic susceptibility,Staphylococcus hominis; Sh3 (Staphylococcus hominis),R
same,Antibiotic susceptibility,[1]; [4],S
same,Antibiotic susceptibility,[1]; [5],R
same,Antibiotic susceptibility,[1]; [6],R
same,Antibiotic susceptibility,[1]; [7],R
same,Antibiotic susceptibility,[1]; [8],R
same,Antibiotic susceptibility,[3]; [9],I
same,Antibiotic susceptibility,[3]; [10],S
same,Antibiotic susceptibility,[2]; S. aureus ATCC 25923,S
same,Antibiotic susceptibility,[2]; S. aureus ATCC 29213,S
same,Antibiotic susceptibility,[2]; S. aureus ATCC BAA 976,R
same,Antibiotic susceptibility,[2]; S. aureus ATCC BAA 977,R
same,Antibiotic susceptibility,[2]; S. aureus ATCC BAA 1026,R
same,Antibiotic susceptibility,[2]; Sa1 (MRSA),R
same,Antibiotic susceptibility,[2]; Sa2 (MRSA),R
same,Antibiotic susceptibility,[2]; Sa3 (MRSA),R
same,Antibiotic susceptibility,[2]; Sa5 (MRSA),R
same,Antibiotic susceptibility,[2]; Sa6 (MRSA),R
same,Antibiotic susceptibility,[2]; Sa7 (MRSA),R
same,Antibiotic susceptibility,[2]; Sa8 (MRSA),R
same,Antibiotic susceptibility,[2]; Sa9 (MRSA),R
same,Antibiotic susceptibility,[2]; Sa10 (MRSA),R
same,Antibiotic susceptibility,[2]; Sa11 (MRSA),R
same,Antibiotic susceptibility,[2]; Sa12 (MRSA),R
same,Antibiotic susceptibility,[2]; Sa14 (MRSA),R
same,Antibiotic susceptibility,[2]; Sa15 (MRSA),R
same,Antibiotic susceptibility,[2]; Sa16 (MRSA),R
same,Antibiotic susceptibility,[2]; Sa17 (MRSA),R
same,Antibiotic susceptibility,[2]; Sa18 (MRSA),R
same,Antibiotic susceptibility,[2]; Sa19 (MRSA),R
same,Antibiotic susceptibility,[2]; Sa20 (MRSA),R
same,Antibiotic susceptibility,[2]; Sa21 (MRSA),R
same,Antibiotic susceptibility,[2]; Sa22 (MRSA),R
same,Antibiotic susceptibility,[2]; Sa23 (MRSA),R
"CO[C@@]1(NC(=O)Cc2cccs2)C(=O)N2C(C(=O)O)=C(COC(N)=O)CS[C@@H]21 [FOX, Cefoxitin]",FOX screen,Staphylococcus hominis; Sh1 (Staphylococcus hominis),POS
same,FOX screen,Staphylococcus hominis; Sh2 (Staphylococcus hominis),POS
same,FOX screen,Staphylococcus hominis; Sh3 (Staphylococcus hominis),POS
same,FOX screen,[1]; [4],POS
same,FOX screen,[1]; [5],POS
same,FOX screen,[1]; [6],POS
same,FOX screen,[1]; [7],POS
same,FOX screen,[1]; [8],POS
same,FOX screen,[3]; [9],POS
same,FOX screen,[3]; [10],POS
same,FOX screen,[2]; S. aureus ATCC 25923,Neg
same,FOX screen,[2]; S. aureus ATCC 29213,Neg
same,FOX screen,[2]; S. aureus ATCC BAA 976,POS
same,FOX screen,[2]; S. aureus ATCC BAA 977,Neg
same,FOX screen,[2]; S. aureus ATCC BAA 1026,POS
same,FOX screen,[2]; Sa1 (MRSA),POS
same,FOX screen,[2]; Sa2 (MRSA),POS
same,FOX screen,[2]; Sa3 (MRSA),POS
same,FOX screen,[2]; Sa6 (MRSA),POS
same,FOX screen,[2]; Sa7 (MRSA),POS
same,FOX screen,[2]; Sa9 (MRSA),POS
same,FOX screen,[2]; Sa11 (MRSA),POS
same,FOX screen,[2]; Sa12 (MRSA),POS
same,FOX screen,[2]; Sa14 (MRSA),POS
same,FOX screen,[2]; Sa15 (MRSA),POS
same,FOX screen,[2]; Sa16 (MRSA),POS
same,FOX screen,[2]; Sa17 (MRSA),POS
same,FOX screen,[2]; Sa18 (MRSA),POS
same,FOX screen,[2]; Sa19 (MRSA),POS
same,FOX screen,[2]; Sa20 (MRSA),POS
same,FOX screen,[2]; Sa21 (MRSA),POS
same,FOX screen,[2]; Sa22 (MRSA),POS
same,FOX screen,[2]; Sa23 (MRSA),POS
